Reference: patent publication US20090142337A1, “Pharmaceutical Combinations of Diazole Derivatives for Cancer Treatment” (Astex Therapeutics Limited, priority 2006, published 2009)

Experiments:
CML patients = details: CML blast phase; cited from earlier work
PKA = PKA (Homo sapiens, UniProt P17612); details: cited from earlier work
PKG = details: cited from earlier work
OVCAR-3 tumour cells = details: concentrations of 50 and 100 microM; cited from earlier work
[1] = Vapour sorption/desorption analysis; format: physicochemical; details: 0 to 90% RH stepwise, 25 °C, total upon equilibration at 90% RH
Procedure: Crystals of 4-(2,6-dichlorobenzoylamino)-1H-pyrazole-3-carboxylic acid (1-methanesulphonyl-piperidin-4-yl)-amide prepared by the recrystallisation method of Example 5 Step 8 were subjected to vapour sorption/desorption analysis in order to test for the propensity of this sample to form a hydrated state.
Approximately 20 mg of sample was placed into a wire-mesh vapour sorption balance pan and loaded into an ‘IgaSorp’ vapour sorption balance (Hiden Analytical Instruments) held at 25+/−0.1° C. The sample was then dried by maintaining a 0% humidity environment (using mass flow control apparatus) until no further weight change was recorded. Subsequently, the sample was then subjected to a ramping profile from 0-90% relative humidity (% RH) at 10% RH increments, maintaining the sample at each step until equilibration had been attained (99.5% step completion).
Upon reaching equilibration, the % RH within the apparatus was ramped to the next step and the equilibration procedure repeated. After completion of the sorption cycle, the sample was then dried using the same procedure. The weight change during the sorption/desorption cycles was then monitored, allowing for the hygroscopic nature of the sample to be determined.

HCT-116 cell line = assay: Anti-proliferative activity (Alamar Blue assay); format: cell-based, human; details: for IC50: Homo sapiens, HCT-116, read-out: HCT-116 cell proliferation IC50
Procedure: The anti-proliferative activities of compounds for use in the combinations of the invention can be determined by measuring the ability of the compounds to inhibition of cell growth in a number of cell lines. […] The method is based on the ability of viable cells to reduce resazurin to its fluorescent product resorufin. […] The number of viable cells is determined by Alamar Blue assay as before. Cell lines can be obtained from the ECACC (European Collection of cell Cultures).

[2] = Determination of oral bioavailability; format: in vivo, balb/c mice; details: mice, oral route (5 mg/kg PO vs 1 mg/kg IV)
Procedure: The oral bioavailability of the compounds for use in the combinations of the invention may be determined as follows.
The test compound is administered as a solution both I.V. and orally to balb/c mice at the following dose level and dose formulations; • 1 mg/kg IV formulated in 10% DMSO/90% (2-hydroxypropyl)-β-cyclodextrin (25% w/v); and • 5 mg/kg PO formulated in 10% DMSO/20% water/70% PEG200.
At various time points after dosing, blood samples are taken in heparinised tubes and the plasma fraction is collected for analysis. The analysis is undertaken by LC-MS/MS after protein precipitation and the samples are quantified by comparison with a standard calibration line constructed for the test compound. The area under the curve (AUC) is calculated from the plasma level vs time profile by standard methods. The oral bioavailability as a percentage is calculated from the following equation: […]

[3] = test system: human tumour derived cell lines; assay: Xenograft studies; format: in vivo, nude mice; details: dosed orally
Source text: These biomarkers include suppression of phosphorylation of substrates of the cyclin dependent kinases e.g. retinoblastoma protein.

CDK2/CyclinA = CDK2/CyclinA (Homo sapiens, UniProt P24941); assay: Activated CDK2/CyclinA kinase inhibitory activity assay; format: biochemical
Procedure: The reaction is allowed to proceed for 2 to 4 hours before being stopped with an excess of ortho-phosphoric acid (5 μl at 2%). γ^33P-ATP which remains unincorporated into the histone H1 is separated from phosphorylated histone H1 on a Millipore MAPH filter plate. The wells of the MAPH plate are wetted with 0.5% orthophosphoric acid, and then the results of the reaction are filtered with a Millipore vacuum filtration unit through the wells. Following filtration, the residue is washed twice with 200 μl of 0.5% orthophosphoric acid. Once the filters have dried, 20 μl of Microscint 20 scintillant is added, and then counted on a Packard Topcount for 30 seconds.

Question: For `Cc1ccc(NC(=O)c2ccc(CN3CCN(C)CC3)cc2)cc1Nc1nccc(-c2cccnc2)n1` [imatinib], which duration of remissions (CML patients) is on record?
Answer: 2-6 months

Question: Which IC50 (PKA) does the source give for `O=S(=O)(NCCNCC=C(c1ccccc1)c1ccccc1)c1cccc2cnccc12` [NL-71-101] here?
Answer: 9 µM

Question: What about the IC50 (PKG) of the same compound?
Answer: 36 µM

Question: And the “apoptosis in OVCAR-3 tumour cells” value (OVCAR-3 tumour cells)?
Answer: induced apoptosis

Question: For `CS(=O)(=O)N1CCC(NC(=O)c2n[nH]cc2NC(=O)c2c(Cl)cccc2Cl)CC1` [Example 1, 4-(2,6-dichloro-benzoylamino)-1H-pyrazole-3-carboxylic acid (1-methanesulphonyl-piperidin-4-yl)-amide], which “weight increase on vapour sorption” value [1] is on record?
Answer: 0.24%

Question: What about the “more potent anti-proliferative effect on human colon cancer HCT-116 cell line compared to difluoro-analogue” value (HCT-116 cell line) of the same compound?
Answer: 6-7 fold

Question: And the IC50 (HCT-116 cell line)?
Answer: 0.11 µM

Question: What about the bioavailability ([2]; balb/c, mouse, plasma, oral, 5 mg/kg) of the same compound?
Answer: 40 to 50%

Question: What about the oral bioavailability [2] of the same compound?
Answer: 30-100%

Question: What about the “tumour biomarkers (phosphorylation of CDK substrates e.g. retinoblastoma protein)” value [3] of the same compound?
Answer: inhibition of the tumour biomarkers

Question: And the “tumour growth in xenografts” value ([3]; xenografts implanted sub-cutaneously)?
Answer: inhibition of tumour growth

Question: Which IC50 (HCT-116 cell line) does the source give for `CS(=O)(=O)N1CCC(NC(=O)c2n[nH]cc2NC(=O)c2c(F)cccc2F)CC1` [reference compound] here?
Answer: 0.74 µM

Question: What about the “selectivity for CDK inhibition over GSK3β” value (CDK2/CyclinA) of the same compound?
Answer: ~6 fold
